Source: paper PMC11284790, “Targeting Myeloperoxidase Ameliorates Gouty Arthritis: A Virtual Screening Success Story” (Journal of Medicinal Chemistry, 2024)

How the values were obtained:
[1] = tested on: human peripheral blood neutrophils; test: Cellular production of HOCl, PMA-activated peripheral blood neutrophils; format: cell-based; conditions: 20 μM compound, 100 nM PMA, 1 h
Procedure: Human neutrophils were obtained from healthy individuals as previously described.[24] The experiments were approved by the local ethics committee (CEPSH-ICB 1435/18).
Measurement of HOCl production by 1 × 10^6 dHL-60 or neutrophils was carried out in PBS (10 mM Na2HPO4, 2 mM KH2PO4, 0.5 mM MgCl2, 1 mM CaCl2, 140 mM NaCl, 5.5 mM dextrose, 100 μM diethylenetriaminepentaacetic acid, 5 mM taurine) in the presence of the compounds (20 μM in 0.3% DMSO) or 0.3% DMSO (control). Cells were activated with phorbol myristate acetate (100 nM) at 37 °C for 1 h. After incubation, cells were centrifuged at 1400 rpm for 10 min, and the supernatant was diluted threefold. Finally, 240 μL of this supernatant was added to 60 μL acetate buffer (400 mM, pH 5.4) containing NaI (100 μM) and TMB (2 mM in DMFO 10%). Taurine chloramine was quantified by TMB oxidation at 655 nm.[33] Inhibition of HOCl production was calculated as the percentage of the control (vehicle).

human neutrophils = test: MSU-induced NETosis assay (sytox green fluorescence microscopy); format: cell-based; conditions: 20 μM compound, MSU 250 μg/mL, 90 min
Procedure: NETosis assay was conducted on human neutrophils adhered to lysine-coated glass coverslips as previously reported.[80] After neutrophils’ adhesion, the compounds were diluted in RPMI medium (free of phenol red and fetal bovine serum) at a final concentration of 20 μM (0.15% DMSO) and added to the cells for 15 min at 37 °C in a 5% CO2 atmosphere. Then, MSU crystals (250 μg/mL), known to induce NETosis, were added. After 90 min incubation, the medium was carefully removed, paraformaldehyde was added (500 μL at 4%), and incubated at 4 °C overnight. In the following day, paraformaldehyde was removed, and cells were washed threefold with tris-HCl buffer (20 mM, pH 7.4) and kept into the same buffer at 4 °C. Tris-HCl buffer was carefully removed, and DNA was stained by adding 500 μL SYTOX Green (500 nM diluted in tris-HCl buffer). The system was kept for 30 min at room temperature, protected from light. After staining, the coverslips were mounted over the glass slides using ProLong Diamond Antifade Mountant fixation medium. Fluorescence images were acquired in an Axiovert 200 (Zeiss) fluorescence microscope with a 20x/0.4 objective and Zeiss Filter Set 09, λex = 450–490 nm, λem = above 515 nm. Images were taken by an Axiocam HR R3 camera device.

MSU-induced paw edema = test: MSU-induced paw edema, oral treatment; format: in vivo, male C57BL/6 mice
Procedure: Paw volume (mL) was measured at various time points, including before injection (baseline, B), […] 1, 2, 3, 4, 5, and 6 h following MSU injection using a plethysmometer (Ugo Basile, Comerio, Italy) (Figure 7). For this, the injected hind paw was immersed into the dipping solution (6 mM NaCl diluted in distilled water and added with 2 mL/L of a wetting compound provided by the manufacturer) until the ankle. The extent of edema was quantified as a change in paw volume (Δ mL) by subtracting the basal paw volume from the volume of the paw measured at each time point. To evaluate the antiedematogenic effect of orally administered MPO inhibitors (p.o.), the animals were fasted for 1 h and then treated with equimolar doses of the following substances: vehicle (VEH: 5% DMSO; 0.5% tween 80 in PBS), mefenamic acid (30 mg/kg), RL 6 (33 mg/kg), RL 7 (54 mg/kg), RL 21 (30 mg/kg), or ZINC9089086 (34 mg/kg). After 1 h, the anesthetized mice (2% isoflurane, v/v in O2) received either the vehicle (PBS, 30 μL, i.pl.) or 1.5 mg/30 μL MSU (i.pl.). The paw volume was evaluated at the same time points as previously described. The percentage of edema inhibition by the compounds was calculated discounting the paw volume of mice that received oral or intraperitoneal vehicle and PBS intraplantar (VEH + VEH).

[2] = tested on: total peroxidase activity; test: Paw tissue total peroxidase activity after MSU; format: in vivo, male C57BL/6 mice; conditions: intraperitoneal pretreatment (RL6 30 mg/kg), tissue collected at 6 h
Procedure: After the assessment of paw edema was completed, the mice were immediately anesthetized by inhalation of 2% isoflurane mixture in oxygen (O2). Subsequently, the surface of the hind paws was collected for the measurement of total peroxidase activity, IL-6, and IL-1β. These tissue samples were then frozen using dry ice and stored at −80 °C until further analysis. The frozen tissues were later pulverized into a fine powder using liquid nitrogen and homogenized in a phosphate buffer (100 mM, pH 7.4). For the analysis of total peroxidase activity, a portion of this homogenate was mixed with hexadecyltrimethylammonium (1% HTAB, pH 6.0), vigorously vortexed, and sonicated. The resulting mixture was then centrifuged at 10,000g for 10 min, at 4 °C, and heated at 60 °C for 2 h. The sample of each supernatant was incubated with a solution containing 50 mM phosphate buffer, 0.164 mg/mL of o-dianisidine dihydrochloride, and H2O2 (0.0005%, pH 6.0). […] Each unit represents the capacity to degrade 1 μmol of H2O2 per minute.[81]

IL-1β = test: Paw tissue IL-1β level after MSU (ELISA); format: in vivo, male C57BL/6 mice; conditions: intraperitoneal pretreatment (RL6 30 mg/kg), tissue collected at 6 h
Procedure: (§1) The remaining part of the homogenate was treated with a solution of protease/phosphatase inhibitors (1 mM phenylmethylsulfonyl fluoride, 10 μg/mL leupeptin, and 10 μg/mL trypsin inhibitor) and centrifuged at 10,000g (10 min at 4 °C). The obtained supernatants were subjected to 1:2 dilution in PBS and subsequently used for the assessment of IL-1β and IL-6 using murine enzyme-linked immunosorbent assay kits, specifically a sandwich ELISA technique, following manufacturer’s instructions (BioLegend, CA, USA). The protein content within the samples was determined by using the Bradford method (1976). The results were quantified and expressed in pg/mg of protein (Bio-Rad, Hercules, CA, USA).[76]

IL-6 = test: Paw tissue IL-6 level after MSU (ELISA); format: in vivo, male C57BL/6 mice; conditions: intraperitoneal pretreatment (RL6 30 mg/kg), tissue collected at 6 h
Procedure: as §1

Structure (SMILES) | inhibition of HOCl production in peripheral blood neutrophils [1] | inhibition of MSU-induced NETosis (human neutrophils) | inhibition of edema vs VEH + MSU (MSU-induced paw edema; 33 mg/kg po) [%] | reduction in total peroxidase activity in hind paw tissue [2] | decrease in IL-1β levels in hind paw tissue (IL-1β) | effect on IL-6 levels in hind paw tissue (IL-6) | inhibition of edema vs VEH + MSU (MSU-induced paw edema; 54 mg/kg po) [%]
Nc1cc2c3c(cccc3c1)C(=O)N(N)C2=O [RL6] | significantly inhibited | strongly inhibited | 57.0 | 61.5% | 48.3% | no significant impact | –
CN1CCc2nc3sc(C(=O)Nc4cccc(C#N)c4)c(N)c3cc2C1 [RL7] | significantly inhibited | to a lesser extent | – | unable to decrease | unable to decrease | unable to decrease | 74.3
